Assay results from ChEMBL document CHEMBL6074639, “MALT1 Inhibitors for Treating Cancer and Immunological Diseases” (ACS Med Chem Lett, 2024).

biological target: T1, Mucosa-associated lymphoid tissue lymphoma translocation protein 1 (Homo sapiens, UniProt Q9UDY8); assay: Inhibition of full length his-tagged MALT1 (1 to 824 residues) (unknown origin) expressed in Baculovirus infected in insect cells using tetrapeptide-[…]-AMC as fluorescent substrate preincubated for 50 mins followed by substrate addition and measured after 4 hrs by fluorescence based analysis
T1 sequence (Q9UDY8 whole entry): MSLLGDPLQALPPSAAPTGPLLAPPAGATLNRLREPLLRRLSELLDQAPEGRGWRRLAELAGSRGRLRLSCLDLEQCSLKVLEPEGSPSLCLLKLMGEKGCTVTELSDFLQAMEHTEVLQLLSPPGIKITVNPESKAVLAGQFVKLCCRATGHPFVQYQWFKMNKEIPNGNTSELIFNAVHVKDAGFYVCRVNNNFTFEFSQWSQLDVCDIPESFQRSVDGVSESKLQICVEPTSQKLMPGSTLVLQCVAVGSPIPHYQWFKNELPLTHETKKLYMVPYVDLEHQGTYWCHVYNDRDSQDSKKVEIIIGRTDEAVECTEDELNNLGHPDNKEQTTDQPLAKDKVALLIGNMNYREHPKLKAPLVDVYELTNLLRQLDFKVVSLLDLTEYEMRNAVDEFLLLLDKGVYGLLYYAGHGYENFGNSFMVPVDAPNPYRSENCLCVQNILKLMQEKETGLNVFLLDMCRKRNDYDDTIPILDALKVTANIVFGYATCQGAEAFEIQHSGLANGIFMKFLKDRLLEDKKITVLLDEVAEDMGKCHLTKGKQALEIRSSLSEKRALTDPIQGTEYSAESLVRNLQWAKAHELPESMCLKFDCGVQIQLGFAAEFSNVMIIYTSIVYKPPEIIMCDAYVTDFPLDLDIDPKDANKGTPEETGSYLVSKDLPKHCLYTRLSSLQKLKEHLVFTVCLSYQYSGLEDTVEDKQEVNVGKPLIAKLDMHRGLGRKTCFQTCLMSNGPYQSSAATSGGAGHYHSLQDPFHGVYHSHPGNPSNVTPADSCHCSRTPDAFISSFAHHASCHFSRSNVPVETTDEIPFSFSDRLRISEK

Row | SMILES | IC50 [nM]
1 | C[C@@]1(C(F)(F)F)CN(c2ccc([C@H]3C(F)(F)[C@]3(C)C(=O)N[C@H]3C[C@@H](C[S+](C)(=N)[O-])C3)cc2)c2cnc3cc(Cl)nn3c21 (stereo partly specified) | 6
2 | CC(C)(C)NC(=O)[C@]1(C)[C@@H](c2ccc(N3C[C@@](C)(C(F)(F)F)c4c3cnc3cc(Cl)nn43)cc2)C1(F)F | 6
3 | C[C@@]1(C(F)(F)F)CN(c2ccc([C@H]3C(F)(F)[C@]3(C)C(=O)NCC3CNC(=O)C3)cc2)c2cnc3cc(Cl)nn3c21 (stereo partly specified) | 6

Further molecules by falling IC50, results first:

Row | IC50 [nM] | SMILES
4 | 6 | C[C@@]1(C(F)(F)F)CN(c2ccc([C@H]3C(F)(F)[C@]3(C)C(=O)NCCS(N)(=O)=O)cc2)c2cnc3cc(Cl)nn3c21
5 | 5 | C[C@@]1(C(F)(F)F)CN(c2ccc([C@H]3C(F)(F)[C@]3(CO)C(N)=O)cc2)c2cnc3cc(Cl)nn3c21
6 | 5 | C[C@@]1(C(F)(F)F)CN(c2ccc([C@H]3C(F)(F)[C@]3(C)C(=O)NCC(N)=O)cc2)c2cnc3cc(Cl)nn3c21
